According to patent EP2970215B1, “PYRROLIDINE DERIVATIVES, PHARMACEUTICAL COMPOSITIONS CONTAINING THEM, AND THEIR USE IN THERAPY” (AbbVie Deutschland GmbH & Co. KG, priority 2013, dated 2014):

Each compound was assayed against T1, human GlyT1c transporter (Homo sapiens, UniProt P48067) (assay: Radioligand binding assay using recombinant CHO cell membranes expressing human GlyT1). Settings: radioligand binding to human GlyT1c transporter-expressing membranes.
T1 construct: expressed in transfected cells; host or cells: CHO cells (recombinant; line hGlyT1c_5_CHO is named for the uptake assay)
T1 sequence (P48067 1-706): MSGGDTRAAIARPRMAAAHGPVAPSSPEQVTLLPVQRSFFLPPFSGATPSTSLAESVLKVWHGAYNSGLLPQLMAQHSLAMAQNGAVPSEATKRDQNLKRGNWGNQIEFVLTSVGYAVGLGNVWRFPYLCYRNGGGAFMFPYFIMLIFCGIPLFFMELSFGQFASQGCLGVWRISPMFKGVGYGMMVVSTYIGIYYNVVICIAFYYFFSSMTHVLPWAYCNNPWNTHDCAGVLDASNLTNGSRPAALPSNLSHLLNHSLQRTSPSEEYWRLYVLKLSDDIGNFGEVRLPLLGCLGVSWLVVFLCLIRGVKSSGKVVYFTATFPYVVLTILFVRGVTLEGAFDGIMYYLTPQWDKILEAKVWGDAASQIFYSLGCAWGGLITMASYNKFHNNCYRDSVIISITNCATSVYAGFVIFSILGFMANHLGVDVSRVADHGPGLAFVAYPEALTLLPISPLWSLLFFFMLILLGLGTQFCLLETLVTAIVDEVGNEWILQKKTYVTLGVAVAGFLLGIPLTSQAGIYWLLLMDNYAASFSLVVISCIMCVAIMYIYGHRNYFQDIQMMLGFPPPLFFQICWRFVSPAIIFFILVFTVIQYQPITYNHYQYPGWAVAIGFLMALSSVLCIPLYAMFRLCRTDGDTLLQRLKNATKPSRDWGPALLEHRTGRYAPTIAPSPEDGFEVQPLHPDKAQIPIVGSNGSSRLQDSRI
From the text: 2. Radioligand binding assays using recombinant CHO cell membranes expressing human GlyT1: […]

**Q.** For Cn1cnc(S(=O)(=O)N2C[C@H](NCCCc3cccc(Cl)c3)[C@@H](c3ccccc3)C2)c1 [Example 471, (3R,4S)-N-[3-(3-chlorophenyl)propyl]-1-[(1-methyl-1H-imidazol-4-yl)sulfonyl]-4-phenylpyrrolidin-3-amine], which Ki is on record?
**A.** Its Ki is at most 0.1 µM.

**Q.** How did the Ki turn out when CC(C)(C)OC(=O)N[C@@H]1CN(S(=O)(=O)c2ccccc2C#N)C[C@H]1c1ccc(F)cc1 (relative stereo) [Example 524, tert-butyl [trans-1-[(2-cyanophenyl)sulfonyl]-4-(4-fluorophenyl)pyrrolidin-3-yl]carbamate] was run?
**A.** Its Ki is at most 10 µM.

**Q.** Which Ki does the source give for CC(=O)Nc1ccc(Cl)cc1N[C@@H]1CN(S(=O)(=O)c2cn(C)cn2)C[C@H]1c1ccc(F)cc1 (relative stereo) [Example 372, N-[4-chloro-2-({Trans-4-(4-fluorophenyl)-1-[(1-methyl-1H-imidazol-4-yl)sulfonyl]pyrrolidin-3-yl}amino)phenyl]acetamide] here?
**A.** Its Ki is at most 10 µM.

**Q.** How did the Ki turn out when Cc1nn(C)c(Cl)c1S(=O)(=O)N1CC(Nc2ccc(F)c(F)c2)C(c2ccccc2)C1 (stereo not shown) [Example 486, 1-[(5-chloro-1,3-dimethyl-1H-pyrazol-4-yl)sulfonyl]-N-(3,4-difluorophenyl)-4-phenylpyrrolidin-3-amine] was run?
**A.** The Ki was at most 10 µM.

**Q.** With CCCCOC(=O)O[C@@H]1CN(S(=O)(=O)c2cn(C)cn2)C[C@H]1c1ccc(F)cc1 [Example 697, butyl (3S,4R)-4-(4-fluorophenyl)-1-[(1-methyl-1H-imidazol-4-yl)sulfonyl]pyrrolidin-3-yl carbonate] as the compound, how does the Ki read?
**A.** The Ki was at most 1 µM.

**Q.** How did the Ki turn out when Cc1noc(C)c1S(=O)(=O)N1CC(Nc2ccc(F)c(F)c2)C(c2ccccc2)C1 (stereo not shown) [Example 513, N-(3,4-difluorophenyl)-1-[(3,5-dimethyl-1,2-oxazol-4-yl)sulfonyl]-4-phenylpyrrolidin-3-amine] was run?
**A.** Its Ki is over 10 µM.

**Q.** Which Ki does the source give for Cn1cnc(S(=O)(=O)N2C[C@H](NC(=O)NCc3ccccc3)[C@@H](c3ccc(F)cc3)C2)c1 [Example 742, 1-benzyl-3-{(3R,4S)-4-(4-fluorophenyl)-1-[(1-methyl-1H-imidazol-4-yl)sulfonyl]pyrrolidin-3-yl}urea] here?
**A.** Its Ki is at most 1 µM.

**Q.** With Cn1cnc(S(=O)(=O)N2C[C@@H](Nc3cccc(C(F)(F)F)c3)[C@H](c3ccccn3)C2)c1 (relative stereo) [Example 344, trans-1-[(1-methyl-1H-imidazol-4-yl)sulfonyl]-4-(pyridin-2-yl)-N-[3-(trifluoromethyl)phenyl]pyrrolidin-3-amine] as the compound, how does the Ki read?
**A.** The Ki was at most 0.1 µM.

**Q.** With Cn1cnc(S(=O)(=O)N2C[C@@H](Nc3cc(F)cc(C#N)c3)[C@H](c3ccccc3)C2)c1 (relative stereo) [Example 78, 3-fluoro-5-({trans-1-[(1-methyl-1H-imidazol-4-yl)sulfonyl]-4-phenylpyrrolidin-3-yl}amino)benzonitrile] as the compound, how does the Ki read?
**A.** The Ki was at most 1 µM.

**Q.** Which Ki does the source give for Cn1cnc(S(=O)(=O)N2C[C@@H](Nc3ccccn3)[C@H](c3ccc(F)cc3)C2)c1 (relative stereo) [Example 178, N-{trans-4-(4-fluorophenyl)-1-[(1-methyl-1H-imidazol-4-yl)sulfonyl]pyrrolidin-3-yl}pyridin-2-amine] here?
**A.** The Ki was at most 1 µM.

**Q.** With Cn1cnc(S(=O)(=O)N2C[C@H](Nc3cnc(C4CC4)cn3)[C@@H](c3ccccc3)C2)c1 [Example 410, 5-cyclopropyl-N-{(3R,4S)-1-[(1-methyl-1H-imidazol-4-yl)sulfonyl]-4-phenylpyrrolidin-3-yl}pyrazin-2-amine] as the compound, how does the Ki read?
**A.** The Ki was at most 10 µM.

**Q.** How did the Ki turn out when Cn1cnc(S(=O)(=O)N2C[C@@H](Nc3ccc4ncccc4c3)[C@H](c3ccccc3)C2)c1 (relative stereo) [Example 229, N-{trans-1-[(1-methyl-1H-imidazol-4-yl)sulfonyl]-4-phenylpyrrolidin-3-yl}quinolin-6-amine] was run?
**A.** Its Ki is at most 10 µM.

**Q.** How did the Ki turn out when Cn1cnc(S(=O)(=O)N2C[C@@H](Nc3ccc(Cl)c(Cl)c3)[C@H](c3ccc(F)cc3)C2)c1 (relative stereo) [Example 161, trans-N-(3,4-dichlorophenyl)-4-(4-fluorophenyl)-1-[(1-methyl-1H-imidazol-4-yl)sulfonyl]pyrrolidin-3-amine] was run?
**A.** Its Ki is at most 1 µM.

**Q.** CCCC1CC1CN[C@H]1CN(S(=O)(=O)c2cn(C)cn2)C[C@@H]1c1ccccc1 (stereo partly drawn) [Example 650, (3R,4S)-1-[(1-methyl-1H-imidazol-4-yl)sulfonyl]-4-phenyl-N-[(2-propylcyclopropyl)methyl]pyrrolidin-3-amine] was tested. Which Ki did it give?
**A.** Its Ki is at most 1 µM.

**Q.** Which Ki does the source give for Cn1cnc(S(=O)(=O)N2CC(Nc3cccnn3)C(c3ccc(F)cc3)C2)c1 (stereo not shown) [Example 350, N-{4-(4-fluorophenyl)-1-[(1-methyl-1H-imidazol-4-yl)sulfonyl]pyrrolidin-3-yl}pyridazin-3-amine] here?
**A.** The Ki was over 10 µM.

**Q.** How did the Ki turn out when Cn1cnc(S(=O)(=O)N2C[C@H](NCc3sc(Cl)nc3Cl)[C@@H](c3ccccc3)C2)c1 [Example 435, (3R,4S)-N-[(2,4-dichloro-1,3-thiazol-5-yl)methyl]-1-[(1-methyl-1H-imidazol-4-yl)sulfonyl]-4-phenylpyrrolidin-3-amine] was run?
**A.** The Ki was at most 0.1 µM.

**Q.** Which Ki does the source give for Cn1cnc(S(=O)(=O)N2C[C@@H](C(=O)c3cccc(Cl)c3)[C@H](c3ccc(F)cc3)C2)c1 (relative stereo) [Example 297, (3-chlorophenyl){trans-4-(4-fluorophenyl)-1-[(1-methyl-1H-imidazol-4-yl)sulfonyl]pyrrolidin-3-yl}methanone] here?
**A.** Its Ki is at most 0.01 µM.

**Q.** For Cn1cnc(S(=O)(=O)N2C[C@@H](NC(=O)c3cccc(C(F)(F)F)c3Cl)[C@H](c3ccc(F)cc3)C2)c1 (relative stereo) [Example 3, 2-chloro-N-{trans-4-(4-fluorophenyl)-1-[(1-methyl-1H-imidazol-4-yl)sulfonyl]pyrrolidin-3-yl}-3-(trifluoromethyl)benzamide], which Ki is on record?
**A.** Its Ki is at most 0.1 µM.

**Q.** Cn1cnc(S(=O)(=O)N2C[C@@H](Nc3ccc(Cl)c(C(F)(F)F)c3)[C@H](c3ccc(F)cc3)C2)c1 (relative stereo) [Example 172, trans-N-[4-chloro-3-(trifluoromethyl)phenyl]-4-(4-fluorophenyl)-1-[(1-methyl-1H-imidazol-4-yl)sulfonyl]pyrrolidin-3-amine] was tested. Which Ki did it give?
**A.** Its Ki is at most 0.1 µM.

**Q.** Which Ki does the source give for CC(C)CCN[C@H]1CN(S(=O)(=O)c2cn(C)cn2)C[C@@H]1c1ccccc1 [Example 463, (3R,4S)-N-(3-methylbutyl)-1-[(1-methyl-1H-imidazol-4-yl)sulfonyl]-4-phenylpyrrolidin-3-amine] here?
**A.** The Ki was at most 1 µM.

**Q.** With Cn1cnc(S(=O)(=O)N2C[C@@H](NCc3ccc(C(F)(F)F)cc3Cl)[C@H](c3ccccc3)C2)c1 (relative stereo) [Example 281, trans-N-[2-chloro-4-(trifluoromethyl)benzyl]-1-[(1-methyl-1H-imidazol-4-yl)sulfonyl]-4-phenylpyrrolidin-3-amine] as the compound, how does the Ki read?
**A.** The Ki was at most 0.01 µM.

**Q.** For Cn1cnc(S(=O)(=O)N2C[C@H](Nc3cccc(OCC(F)(F)F)c3)[C@@H](c3ccccc3)C2)c1 [Example 670, (3R,4S)-1-[(1-methyl-1H-imidazol-4-yl)sulfonyl]-4-phenyl-N-[3-(2,2,2-trifluoroethoxy)phenyl]pyrrolidin-3-amine], which Ki is on record?
**A.** Its Ki is at most 0.01 µM.

**Q.** Which Ki does the source give for CCOCCNC[C@@H]1CN(S(=O)(=O)c2cn(C)cn2)C[C@H]1c1ccc(F)cc1 (relative stereo) [Example 598, 2-ethoxy-N-({trans-4-(4-fluorophenyl)-1-[(1-methyl-1H-imidazol-4-yl)sulfonyl]pyrrolidin-3-yl}methyl)ethanamine] here?
**A.** The Ki was at most 10 µM.

**Q.** With Cn1cnc(S(=O)(=O)N2C[C@@H](CNc3ccc(F)c(Cl)c3)[C@H](c3ccc(F)cc3)C2)c1 (relative stereo) [Example 314, 3-chloro-4-fluoro-N-({trans-4-(4-fluorophenyl)-1-[(1-methyl-1H-imidazol-4-yl)sulfonyl]pyrrolidin-3-yl}methyl)aniline] as the compound, how does the Ki read?
**A.** The Ki was at most 1 µM.

Same assay, conditions: radioligand binding, recombinant CHO cell membranes expressing human GlyT1c

**Q.** Which Ki does the source give for Cn1cc(S(=O)(=O)N2C[C@H](Nc3cccc(OC(F)(F)F)c3)[C@@H](c3ccc(F)cc3)C2)nn1 [Example 837, (3R,4S)-4-(4-fluorophenyl)-1-[(1-methyl-1H-1,2,3-triazol-4-yl)sulfonyl]-N-[3-(trifluoromethoxy)phenyl]pyrrolidin-3-amine] here?
**A.** Its Ki is at most 0.01 µM.

**Q.** For Cn1cnc(S(=O)(=O)N2CC(Nc3ccc(F)c(Cl)c3)C([C@@H]3CCCO3)C2)c1 (stereo partly drawn) [Example 825, N-(3-chloro-4-fluorophenyl)-1-[(1-methyl-1H-imidazol-4-yl)sulfonyl]-4-[(2S)-tetrahydrofuran-2-yl]pyrrolidin-3-amine], which Ki is on record?
**A.** The Ki was at most 1 µM.

**Q.** How did the Ki turn out when CCCCCCNC1CN(S(=O)(=O)c2cn(C)cn2)CC1[C@@H]1CCCO1 (stereo partly drawn) [Example 821, N-hexyl-1-[(1-methyl-1H-imidazol-4-yl)sulfonyl]-4-[(2S)-tetrahydrofuran-2-yl]pyrrolidin-3-amine] was run?
**A.** The Ki was at most 10 µM.

**Q.** How did the Ki turn out when Cc1cc(N[C@@H]2CN(S(=O)(=O)c3cn(C)cn3)C[C@H]2C2CCCO2)ncc1F (relative stereo) [Example 851, 5-Fluoro-4-methyl-N-[trans-1-[(1-methyl-1H-imidazol-4-yl)sulfonyl]-4-(tetrahydrofuran-2-yl)pyrrolidin-3-yl]pyridin-2-amine] was run?
**A.** Its Ki is at most 10 µM.
